Key:
[1] = target: T1, Recombinant human His-tagged Kat6a protein (amino acids 194-810) (Homo sapiens, UniProt Q92794); test: Kat6a activity assay (TR-FRET, acetylation of Histone-H4-derived peptide); type: biochemical; details: 60 mins at 22° C., 220 nM H4 peptide, 600 nM Acetyl Coenzyme A, read-out: KAT6A - DPF/HAT domain IC50 [mol/l] (arithmetic mean)
T1 construct: Kat6a protein (amino acids 194-810); His
Description: Kat6a inhibitory activities of the compounds described in the present invention were quantified using a Fluorescence Resonance Energy Transfer (TR-FRET) assay which measures acetylation of a synthetic, biotinylated Histone-H4-derived peptide by the enzyme.
In this case 50 nl DMSO were used instead of compounds. […] IC50 values were determined by regression analysis based on a 4 parameter equation (minimum, maximum, ICM, Hill; Y=Max+(Min−Max)/(1+(X/ICso) Hill) using the Screener Software (Genedata).

[2] = tested on: ESR1 transcription in MVLN cells; test: MVLN reporter assay: repression of ESR1 transcription (luciferase signal); type: cell-based; details: Homo sapiens, MVLN, 24 h, luciferase signal after 24 h, read-out: MVLN reporter assay, IC50 [M] (arithmetic mean)
From the text: KAT6A controls transcription of the ESR1 gene in breast cancer cells. Compound treatment that interferes with this mechanism was quantified using MVLN cells. These cells constitutively express the ER and are stably transfected with the luciferase (LUC) reporter gene and the corresponding hormone responsive element derived from the 5′-flanking region of the Xenopus Vitellogenin A2 gene (Pons et al., 1990, Demirpense et al., 1993, Joyeux et al., 1993). The repressive effect on ERα transcription activity of a test chemical is directly related to the luciferase measured in the lysate of treated MVLN cells. […] Each sample was prepared as duplicate and rim wells were excluded. For luciferase signal determination 100 μl of a 1:1 mixture of Steadylite plus (Perkin Elmer; 6016759) and assay medium was added after 24 h for 15 minutes and measured in Victor X3 (Perkin Elmer). To exclude any effects caused by cell loss during the treatment, cell density was determined using Alamar Blue (Invitrogen; DAL1100). Prior to the luciferase measurement 10 μl Alamar Blue were added to each well and the plates were incubated for 2 h in the incubator. Then fluorescence was measured with Victor X3 (Perkin Elmer) at 530 nm/590 nm.

T1 sequence (Q92794 194-810): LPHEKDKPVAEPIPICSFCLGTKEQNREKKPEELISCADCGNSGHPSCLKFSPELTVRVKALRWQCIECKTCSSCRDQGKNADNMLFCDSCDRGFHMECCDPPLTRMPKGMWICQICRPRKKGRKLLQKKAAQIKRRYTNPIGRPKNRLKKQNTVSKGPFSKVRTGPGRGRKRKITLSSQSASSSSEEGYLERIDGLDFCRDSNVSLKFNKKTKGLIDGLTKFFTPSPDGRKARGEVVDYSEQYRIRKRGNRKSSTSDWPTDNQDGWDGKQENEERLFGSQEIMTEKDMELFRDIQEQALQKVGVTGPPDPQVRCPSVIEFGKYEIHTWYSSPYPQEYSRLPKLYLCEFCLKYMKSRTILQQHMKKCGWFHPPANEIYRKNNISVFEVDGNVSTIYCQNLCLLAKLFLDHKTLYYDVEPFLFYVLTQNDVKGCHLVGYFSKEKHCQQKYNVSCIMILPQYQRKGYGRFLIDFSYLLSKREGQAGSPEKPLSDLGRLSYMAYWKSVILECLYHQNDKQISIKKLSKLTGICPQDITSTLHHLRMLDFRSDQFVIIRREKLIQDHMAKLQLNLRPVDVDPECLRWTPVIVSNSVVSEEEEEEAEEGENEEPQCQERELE

| Compound | IC50 [1] [nM] | IC50 [2] [M] |
| --- | --- | --- |
| O=C(NS(=O)(=O)c1cccc2nsnc12)c1cc2c(F)cc(N3CCC3)cc2o1 [Example 181, 6-(Azetidin-1-yl)-N-(2,1,3-benzothiadiazole-4-sulfonyl)-4-fluoro-1-benzofuran-2-carboxamide] | 89.5 | 6.47e-07 |
| COc1ccc(-c2cccnc2)cc1S(=O)(=O)NC(=O)c1cc2c(F)cc(N3CCC3)cc2o1 [Example 200, 6-(Azetidin-1-yl)-4-fluoro-N-[2-methoxy-5-(pyridin-3-yl)benzene-1-sulfonyl]-1-benzofuran-2-carboxamide] | 34.1 | 5.5e-07 |
| CN(C)C(=O)c1ccccc1S(=O)(=O)NC(=O)c1cc2c(F)cc(N3CCC3)cc2o1 [Example 51, 6-(Azetidin-1-yl)-N-[2-(dimethylcarbamoyl)benzene-1-sulfonyl]-4-fluoro-1-benzofuran-2-carboxamide] | 189 | 1.51e-06 |
| CC(=O)c1ccc(Cl)c(S(=O)(=O)NC(=O)c2cc3c(F)cc(N4CCC4)cc3o2)c1 [Example 99, N-(5-Acetyl-2-chlorobenzene-1-sulfonyl)-6-(azetidin-1-yl)-4-fluoro-1-benzofuran-2-carboxamide] | 272 | 8.1e-07 |
| CCOC(=O)c1cn2cccc(S(=O)(=O)NC(=O)c3cc4c(F)cc(N5CCC5)cc4o3)c2n1 [Example 90, Ethyl 8-{[6-(azetidin-1-yl)-4-fluoro-1-benzofuran-2-carbonyl]sulfamoyl}imidazo[1,2-a]pyridine-2-carboxylate] | 300 | > 2e-05 |
| CCOc1ccc(F)cc1S(=O)(=O)NC(=O)c1cc2c(F)cc(N3CCC3)cc2o1 [Example 210, 6-(Azetidin-1-yl)-N-(2-ethoxy-5-fluoro-phenyl)sulfonyl-4-fluoro-benzofuran-2-carboxamide] | 52.6 | 1.13e-07 |
| CCCc1ccc2nc(Cl)c(S(=O)(=O)NC(=O)c3cc4c(F)cc(N5CCC5)cc4o3)n2n1 [Example 147, 6-(Azetidin-1-yl)-N-(2-chloro-6-propylimidazo[1,2-b]pyridazine-3-sulfonyl)-4-fluoro-1-benzofuran-2-carboxamide] | 91.5 | 2.98e-06 |
| N#CCCc1ccc(S(=O)(=O)NC(=O)c2cc3c(F)cc(N4CCC4)cc3o2)cc1 [Example 68, 6-(Azetidin-1-yl)-N-[4-(2-cyanoethyl)benzene-1-sulfonyl]-4-fluoro-1-benzofuran-2-carboxamide] | 652 | 1.26e-05 |
| Cc1cccc(C(C)C)c1S(=O)(=O)NC(=O)c1cc2c(F)cc(N3CCC3)cc2o1 [Example 53, 6-(Azetidin-1-yl)-4-fluoro-N-[2-methyl-6-(propan-2-yl)benzene-1-sulfonyl]-1-benzofuran-2-carboxamide] | 698 | 1.58e-06 |
| CC(C)OC(=O)c1ccccc1S(=O)(=O)NC(=O)c1cc2c(F)cc(N3CCC3)cc2o1 [Example 101, Propan-2-yl 2-{[6-(azetidin-1-yl)-4-fluoro-1-benzofuran-2-carbonyl]sulfamoyl}benzoate] | 121 | 1.94e-06 |
| CC(C)Oc1cccc(C(F)(F)F)c1S(=O)(=O)NC(=O)c1cc2c(F)cc(N3CCC3)cc2o1 [Example 28, 6-(Azetidin-1-yl)-4-fluoro-N-{2-[(propan-2-yl)oxy]-6-(trifluoromethyl)benzene-1-sulfonyl}-1-benzofuran-2-carboxamide] | 136 | 3.56e-07 |
| O=C(NS(=O)(=O)c1cccc2c(N3CCOCC3)cccc12)c1cc2c(F)cc(N3CCC3)cc2o1 [Example 188, 6-(Azetidin-1-yl)-4-fluoro-N-[5-(morpholin-4-yl)naphthalene-1-sulfonyl]-1-benzofuran-2-carboxamide] | 132 | 2.55e-06 |
| Cn1nc2cccc(S(=O)(=O)NC(=O)c3cc4c(F)cc(N5CCC5)cc4o3)c2n1 [Example 179, 6-(Azetidin-1-yl)-4-fluoro-N-(2-methyl-2H-benzotriazole-4-sulfonyl)-1-benzofuran-2-carboxamide] | 66.6 | 5.53e-07 |
| CCOc1cccc(C(C)C)c1S(=O)(=O)NC(=O)c1cc2c(F)cc(N3CCC3)cc2o1 [Example 23, 6-(Azetidin-1-yl)-N-[2-ethoxy-6-(propan-2-yl)benzene-1-sulfonyl]-4-fluoro-1-benzofuran-2-carboxamide] | 28.6 | 2.72e-07 |
| Cc1nn(C(C)C)cc1S(=O)(=O)NC(=O)c1cc2c(F)cc(N3CCC3)cc2o1 [Example 91, 6-(Azetidin-1-yl)-4-fluoro-N-[3-methyl-1-(propan-2-yl)-1H-pyrazole-4-sulfonyl]-1-benzofuran-2-carboxamide] | 379 | 3.08e-07 |
| COc1ccc(-c2c(C)noc2C)cc1S(=O)(=O)NC(=O)c1cc2c(F)cc(N3CCC3)cc2o1 [Example 194, 6-(Azetidin-1-yl)-N-[5-(3,5-dimethyl-1,2-oxazol-4-yl)-2-methoxybenzene-1-sulfonyl]-4-fluoro-1-benzofuran-2-carboxamide] | 4.19 | 7.76e-08 |
| Cc1cccc(C2CCCC2)c1S(=O)(=O)NC(=O)c1cc2c(F)cc(N3CCC3)cc2o1 [Example 61, 6-(Azetidin-1-yl)-N-(2-cyclopentyl-6-methylbenzene-1-sulfonyl)-4-fluoro-1-benzofuran-2-carboxamide] | 399 | 5.6e-06 |
| O=C(NS(=O)(=O)c1cccc2c1OCCO2)c1cc2c(F)cc(N3CC(F)C3)cc2o1 [Example 109, N-(2,3-dihydro-1,4-benzodioxine-5-sulfonyl)-4-fluoro-6-(3-fluoroazetidin-1-yl)-1-benzofuran-2-carboxamide] | 172 | 5.92e-07 |
| Cc1ccc2cccnc2c1S(=O)(=O)NC(=O)c1cc2c(F)cc(N3CCC3)cc2o1 [Example 173, 6-(Azetidin-1-yl)-4-fluoro-N-(7-methylquinoline-8-sulfonyl)-1-benzofuran-2-carboxamide] | 65.7 | 1.58e-07 |
| COc1ccc(N2CCN(C)CC2)cc1S(=O)(=O)NC(=O)c1cc2c(F)cc(N3CCC3)cc2o1 [Example 202, 6-(Azetidin-1-yl)-4-fluoro-N-[2-methoxy-5-(4-methylpiperazin-1-yl)benzene-1-sulfonyl]-1-benzofuran-2-carboxamide] | 84.5 | 1.04e-06 |
| CC(C)c1ccc(OC2CCC2)c(S(=O)(=O)NC(=O)c2cc3c(F)cc(N4CCC4)cc3o2)c1 [Example 230, 6-(Azetidin-1-yl)-N-[(2-cyclobutoxy-5-isopropylphenyl)sulfonyl]-4-fluorobenzofuran-2-carboxamide] | 7.71 | 8.72e-08 |
| O=C(NS(=O)(=O)c1ccccc1C(=O)N1CCOCC1)c1cc2c(F)cc(N3CCC3)cc2o1 [Example 73, 6-(Azetidin-1-yl)-4-fluoro-N-[2-(morpholine-4-carbonyl)benzene-1-sulfonyl]-1-benzofuran-2-carboxamide] | 105 | 2.56e-06 |
| CCCc1cccc(S(=O)(=O)NC(=O)c2cc3c(F)cc(N4CCC4)cc3o2)c1 [Example 40, 6-(Azetidin-1-yl)-4-fluoro-N-(3-propylbenzene-1-sulfonyl)-1-benzofuran-2-carboxamide] | 64.2 | 7.89e-07 |
| COc1cccnc1S(=O)(=O)NC(=O)c1cc2c(F)cc(N3CCC3)cc2o1 [Example 67, 6-(Azetidin-1-yl)-4-fluoro-N-(3-methoxypyridine-2-sulfonyl)-1-benzofuran-2-carboxamide] | 345 | 1.1e-05 |
